Source: US20240293554A1, “QUATERNIZED NICOTINAMIDE ADENINE DINUCLEOTIDE SALVAGE PATHWAY INHIBITOR CONJUGATES” (priority 2017, published 2024)

Key:
[1] = tested on: HepG2; test: CellTiter-Glo cytotoxicity assay, HepG2; assay type: cell-based; settings: HepG2 (hepatocellular carcinoma), 96 h
Protocol: (§1) In vitro cytotoxicity assays: Cells cultured in log-phase growth were seeded for 24 h in 96-well plates containing 150 μL RPMI 1640 supplemented with 20% FBS. Serial dilutions of free drugs or antibody-drug conjugates in cell culture media were prepared at 4× working concentrations; 50 μL of each dilution was added to the 96-well plates. Following addition of ADC, cells were incubated with test articles for 4 d at 37° C. After 96 h, growth inhibition was assessed by CellTiter-Glo™ (Promega, Madison, WI) and luminescence was measured on a plate reader. The IC50 value is defined here as the concentration that results in a 50% reduction in cell growth relative to untreated controls.
(§2) Example 89. Binding and cytoxicity of NAMPTi compounds.
(§3) Karpas 299 (non-Hodgkin's lymphoma), L540cy (Hodgkin's lymphoma), Ramos (Burkitt's lymphoma), HepG2 (hepatocellular carcinoma), Hep3B (hepatocellular carcinoma). NAMPTi compounds of Table 1 have the following structures: […]

[2] = tested on: Ramos; test: CellTiter-Glo cytotoxicity assay, Ramos; assay type: cell-based; settings: Ramos (Burkitt's lymphoma), 96 h
Protocol: as §1, §2, §3

[3] = tested on: L540cy; test: CellTiter-Glo cytotoxicity assay, L540cy; assay type: cell-based; settings: L540cy (Hodgkin's lymphoma), 96 h
Protocol: as §1, §2, §3

[4] = target: purified NAMPT (Homo sapiens, UniProt P43490); settings: read-out: FP assay (IC50); NAMPT 120 nM, fluorescent probe 30 nM, 4 hours room temp
Sequence of purified NAMPT (P43490 whole entry): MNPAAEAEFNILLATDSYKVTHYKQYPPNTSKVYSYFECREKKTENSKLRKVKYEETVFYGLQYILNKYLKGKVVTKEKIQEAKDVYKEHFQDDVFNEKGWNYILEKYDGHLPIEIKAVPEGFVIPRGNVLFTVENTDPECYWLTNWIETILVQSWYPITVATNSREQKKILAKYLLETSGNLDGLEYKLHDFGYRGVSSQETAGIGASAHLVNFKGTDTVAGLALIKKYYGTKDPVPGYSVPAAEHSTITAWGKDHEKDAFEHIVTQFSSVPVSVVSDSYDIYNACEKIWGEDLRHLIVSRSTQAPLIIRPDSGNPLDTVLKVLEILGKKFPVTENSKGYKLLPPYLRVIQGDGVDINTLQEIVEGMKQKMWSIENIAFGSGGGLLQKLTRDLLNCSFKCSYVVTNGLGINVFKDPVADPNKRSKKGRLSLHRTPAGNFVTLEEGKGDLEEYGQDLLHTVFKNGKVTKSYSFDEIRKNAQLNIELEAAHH

[5] = tested on: L540cy xenograft; test: L540cy Hodgkin's lymphoma xenograft model; assay type: in vivo, SCID mice; settings: cAC10 ADC (8 drugs per antibody) from the named Drug Linker compound; for tumor growth delay: single 1 mg/kg dose ip on day 8, tumors ~100 mm^3; for tolerability (weight loss, outward signs of toxicity): single 1 mg/kg dose ip, SCID mice
Protocol: In vivo xenograft models. All experiments were conducted in concordance with the Animal Care and Use Committee in a facility fully accredited by the Association for Assessment and Accreditation of Laboratory Animal Care. Efficacy experiments were conducted in the L540cy Hodgkin's lymphoma model. Tumor cells, as a cell suspension, were implanted sub-cutaneous in immune-compromised SCID mice. Upon tumor engraftment, mice were randomized to study groups (5 mice per group) when the average tumor volume reached about 100 mm^3. The ADC or controls were dosed once via intraperitoneal injection. Tumor volume as a function of time was determined using the formula (L×W^2)/2. Animals were euthanized when tumor volumes reached 750 mm^3. Mice showing durable regressions were terminated after 10-12 weeks post implant.
[…] chimeric antibody cAC10 were prepared from Drug Linker compounds 5 (MDPr-GlucQ-FK866), 12 (MDPr-GlucQ-6050) and 26 (MDPr-GlucQ-6553) to provide ADCs carrying 8 drugs per antibody. Animals were implanted with tumor cells on day 0. Tumors reached ˜100 mm^3 on day 8, and were then treated with a single 1 mg/kg dose (ip) of ADCs.

| SMILES | IC50 [1] | IC50 [2] | IC50 [3] | IC50 [4] | tumor growth delay [5] | tolerability (weight loss, outward signs of toxicity) [5] |
| --- | --- | --- | --- | --- | --- | --- |
| CC(C)(C)OC(=O)NC[C@@H](C(=O)NCCC(=O)Nc1cc(C[n+]2ccn3cc(C(=O)NCc4ccc(S(=O)(=O)c5cc(F)cc(F)c5)cc4)ccc32)ccc1O[C@@H]1O[C@H](C(=O)O)[C@@H](O)[C@H](O)[C@H]1O)N1C(=O)C=CC1=O [Compound 29, 1-(3-(3-((S)-3-((tert-butoxycarbonyl)amino)-2-(2,5-dioxo-2,5-dihydro-1H-pyrrol-1-yl)propanamido)propanamido)-4-(((2S,3R,4S,5S,6S)-6-carboxy-3,4,5-trihydroxytetrahydro-2H-pyran-2-yl)oxy)benzyl)-6-((4-((3,5-difluorophenyl)-sulfonyl)benzyl)carbamoyl)imidazo[1,2-a]pyridin-1-ium 2,2,2-trifluoroacetate] | 1.08 nM | 0.71 nM | 0.78 nM | 36 nM |  |  |
| NC[C@@H](C(=O)NCCC(=O)Nc1cc(C[n+]2cccc(/C=C/C(=O)NCCCCC3CCN(C(=O)c4cccc(N)c4)CC3)c2)ccc1O[C@@H]1O[C@H](C(=O)O)[C@@H](O)[C@H](O)[C@H]1O)N1C(=O)C=CC1=O [Compound 12, 1-(3-(3-((S)-3-ammonio-2-(2,5-dioxo-2,5-dihydro-1H-pyrrol-1-yl)propanamido)propanamido)-4-(((2S,3R,4S,5S,6S)-6-carboxy-3,4,5-trihydroxytetrahydro-2H-pyran-2-yl)oxy)benzyl)-3-((E)-3-((4-(1-(3-ammoniobenzoyl)piperidin-4-yl)butyl)amino)-3-oxoprop-1-en-1-yl)pyridin-1-ium 2,2,2-trifluoroacetate] |  |  |  |  | varying levels of tumor growth delay | well-tolerated, with no weight loss or outward signs of toxicity observed |
| NCCC(=O)Nc1cc(C[n+]2ccn3cc(C(=O)NCc4ccc(S(=O)(=O)c5cc(F)cc(F)c5)cc4)ccc32)ccc1O[C@@H]1O[C@H](C(=O)O)[C@@H](O)[C@H](O)[C@H]1O [Compound 28, 1-(3-(3-ammoniopropanamido)-4-(((2S,3R,4S,5S,6S)-6-carboxy-3,4,5-trihydroxytetrahydro-2H-pyran-2-yl)oxy)benzyl)-6-((4-((3,5-difluorophenyl)-sulfonyl)benzyl)carbamoyl)imidazo[1,2-a]pyridin-1-ium 2,2,2-trifluoroacetate] | 8 nM | 1 nM | 8.5 nM | 47 nM |  |  |
| NC[C@@H](C(=O)NCCC(=O)Nc1cc(C[n+]2cccc(/C=C/C(=O)NCCCCC3CCN(C(=O)c4ccccc4)CC3)c2)ccc1O[C@@H]1O[C@H](C(=O)O)[C@@H](O)[C@H](O)[C@H]1O)N1C(=O)C=CC1=O [Compound 5, 1-(3-(3-((S)-3-amino-2-(2,5-dioxo-2,5-dihydro-1H-pyrrol-1-yl)propanamido)propanamido)-4-(((2S, 3R, 4S, 5S, 6S)-6-carboxy-3,4,5-trihydroxy-tetrahydro-2H-pyran-2-yl)oxy)benzyl)-3-((E)-3-((4-(1-benzoylpiperidin-4-yl)butyl)amino)-3-oxoprop-1-en-1-yl)pyridin-1-ium 2,2,2-trifluoroacetate] |  |  |  |  | varying levels of tumor growth delay | well-tolerated, with no weight loss or outward signs of toxicity observed |
| CN(CC1(CO)CCCC1)C(=O)CCCCCCCN/C(=N\C#N)Nc1cc[n+](Cc2ccc(O[C@@H]3O[C@H](C(=O)O)[C@@H](O)[C@H](O)[C@H]3O)c(NC(=O)CCNC(=O)CCN3C(=O)C=CC3=O)c2)cc1 [Compound 26, 1-(4-(((2S,3R,4S,5S,6S)-6-carboxy-3,4,5-trihydroxytetrahydro-2H-pyran-2-yl)oxy)-3-(3-(3-(2,5-dioxo-2,5-dihydro-1H-pyrrol-1-yl)propanamido)-propanamido)benzyl)-4-((E)-2-cyano-3-(8-(((1-(hydroxymethyl)cyclopentyl)methyl)-(methyl)amino)-8-oxooctyl)guanidino)pyridin-1-ium 2,2,2-trifluoroacetate] |  |  |  |  | varying levels of tumor growth delay | well-tolerated, with no weight loss or outward signs of toxicity observed |
